Test results from ChEMBL document CHEMBL1201862, “PubChem BioAssay data set” (2004).
Calls of active or inactive are those of the source.

Tests used:
Protein RecA = target: T1, Protein RecA (Mycobacterium tuberculosis, UniProt P9WHJ3); test: Fluorescence Cell-Free Homogeneous Dose Retest to Identify Inhibitors of RecA-Intein Splicing Activity. [Related pubchem assays (depositor defined):AID2097, AID2223, AID489010, AID492950]; assay type: functional
T1 sequence (P9WHJ3 whole entry): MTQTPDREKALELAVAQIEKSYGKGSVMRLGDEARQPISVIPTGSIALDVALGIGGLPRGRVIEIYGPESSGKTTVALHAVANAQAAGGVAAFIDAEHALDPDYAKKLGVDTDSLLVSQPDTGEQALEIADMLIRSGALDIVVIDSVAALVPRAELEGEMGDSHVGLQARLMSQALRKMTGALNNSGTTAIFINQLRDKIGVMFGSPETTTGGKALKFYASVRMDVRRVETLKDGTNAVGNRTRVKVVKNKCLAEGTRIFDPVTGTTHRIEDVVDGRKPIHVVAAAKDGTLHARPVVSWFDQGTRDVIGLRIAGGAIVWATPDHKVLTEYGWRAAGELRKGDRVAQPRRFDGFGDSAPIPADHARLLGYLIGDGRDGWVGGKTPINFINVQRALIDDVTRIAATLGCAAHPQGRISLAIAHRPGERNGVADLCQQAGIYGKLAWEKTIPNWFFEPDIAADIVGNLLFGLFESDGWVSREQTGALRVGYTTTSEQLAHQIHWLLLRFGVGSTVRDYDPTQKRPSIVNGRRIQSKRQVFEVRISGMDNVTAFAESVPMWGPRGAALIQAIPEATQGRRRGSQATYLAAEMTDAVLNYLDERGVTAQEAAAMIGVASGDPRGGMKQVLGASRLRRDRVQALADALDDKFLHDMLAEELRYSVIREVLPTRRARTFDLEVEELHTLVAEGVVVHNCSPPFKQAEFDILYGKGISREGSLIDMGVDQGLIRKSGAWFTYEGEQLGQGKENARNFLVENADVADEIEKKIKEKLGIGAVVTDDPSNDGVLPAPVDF

[1] = target: T2, Replicative DNA helicase DnaB (Mycobacterium tuberculosis, UniProt P9WMR3); test: DnaB intein splicing inhibitors, dose response, biochemical, cell-free fluorescence (AID 449749); assay type: functional
T2 sequence (P9WMR3 whole entry): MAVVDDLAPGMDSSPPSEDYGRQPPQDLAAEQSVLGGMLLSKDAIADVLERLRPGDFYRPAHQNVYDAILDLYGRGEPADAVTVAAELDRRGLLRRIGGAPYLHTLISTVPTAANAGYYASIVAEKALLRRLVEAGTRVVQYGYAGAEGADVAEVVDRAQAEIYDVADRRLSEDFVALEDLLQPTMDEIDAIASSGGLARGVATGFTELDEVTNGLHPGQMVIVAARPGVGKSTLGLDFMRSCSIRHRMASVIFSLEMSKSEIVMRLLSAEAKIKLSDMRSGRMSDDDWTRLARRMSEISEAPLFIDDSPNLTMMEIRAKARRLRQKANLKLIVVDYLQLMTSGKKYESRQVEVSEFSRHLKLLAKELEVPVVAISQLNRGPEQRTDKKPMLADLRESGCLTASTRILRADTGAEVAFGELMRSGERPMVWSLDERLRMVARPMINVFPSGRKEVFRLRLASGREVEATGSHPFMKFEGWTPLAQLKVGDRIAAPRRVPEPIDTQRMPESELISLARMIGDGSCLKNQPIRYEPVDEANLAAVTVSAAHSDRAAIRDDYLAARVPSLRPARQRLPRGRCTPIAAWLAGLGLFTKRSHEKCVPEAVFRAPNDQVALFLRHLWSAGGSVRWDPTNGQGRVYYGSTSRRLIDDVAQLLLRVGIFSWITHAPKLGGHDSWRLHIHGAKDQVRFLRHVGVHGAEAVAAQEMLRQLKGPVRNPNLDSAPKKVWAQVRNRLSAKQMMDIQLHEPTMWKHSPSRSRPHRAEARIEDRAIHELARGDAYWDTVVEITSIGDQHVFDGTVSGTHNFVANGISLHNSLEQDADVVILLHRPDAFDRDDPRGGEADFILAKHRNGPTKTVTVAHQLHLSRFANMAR

[2] = target: T3, Heat shock factor protein 1 (Mus musculus, UniProt P38532); test: decrease of HSF1-responsive luciferase luminescence – cell-based, NIH3T3, dose retest, confirmation (AID 2382); assay type: functional;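 note: NIH3T3 fibroblasts with HSF1-driven luciferase reporter stressed by proteasome inhibitor MG132; luminescence from HSF1-driven luciferase expression after 8 hours of MG132 stress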
T3 sequence (P38532 whole entry): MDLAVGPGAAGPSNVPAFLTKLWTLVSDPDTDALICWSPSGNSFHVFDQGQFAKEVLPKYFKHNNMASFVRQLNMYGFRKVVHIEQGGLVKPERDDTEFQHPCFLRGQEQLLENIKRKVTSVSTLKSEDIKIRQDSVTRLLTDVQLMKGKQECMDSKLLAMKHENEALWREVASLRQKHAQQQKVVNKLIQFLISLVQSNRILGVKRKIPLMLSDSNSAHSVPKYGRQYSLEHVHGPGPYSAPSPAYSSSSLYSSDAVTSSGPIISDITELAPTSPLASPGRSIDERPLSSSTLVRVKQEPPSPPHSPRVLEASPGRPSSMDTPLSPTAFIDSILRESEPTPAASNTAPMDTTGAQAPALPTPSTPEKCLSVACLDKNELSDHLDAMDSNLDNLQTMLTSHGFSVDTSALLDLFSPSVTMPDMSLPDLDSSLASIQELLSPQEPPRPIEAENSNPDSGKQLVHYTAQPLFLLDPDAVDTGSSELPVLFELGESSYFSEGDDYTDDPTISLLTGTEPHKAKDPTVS

Streptococcus = test: GAS UMAA2166 growth inhibition – luminescence, BacTiterGlo, counter-screen for streptokinase expression inhibitor project, dose response (AID 1915); assay type: functional, organism-based;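 note: potency for reduction of bacterial viability or growth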
[3] = tested on: Streptococcus sp. 'group A'; test: Streptococcus pyogenes SK(-)GAS viability under kanamycin – luminescence, BacTiterGlo, confirmation, counter-screen for streptokinase expression inhibitor project, dose response (AID 1900); assay type: functional, organism-based
[4] = Luminescence Cell-Based Dose Retest to Confirm Inhibitors of Cancer Stem Cells. [Related pubchem assays (depositor defined):AID2717, AID2721]; assay type: functional; details: Homo sapiens
[5] = target: T4, Corticotropin-releasing factor receptor 2/Corticotropin-releasing factor-binding protein (Homo sapiens, UniProt P24387+Q13324); test: activators of CRF receptor 2 with binding protein – uHTS hits, confirmation (AID 602473); assay type: functional; details: read-out: EC50_Mean
T4 sequence (Q13324 whole entry): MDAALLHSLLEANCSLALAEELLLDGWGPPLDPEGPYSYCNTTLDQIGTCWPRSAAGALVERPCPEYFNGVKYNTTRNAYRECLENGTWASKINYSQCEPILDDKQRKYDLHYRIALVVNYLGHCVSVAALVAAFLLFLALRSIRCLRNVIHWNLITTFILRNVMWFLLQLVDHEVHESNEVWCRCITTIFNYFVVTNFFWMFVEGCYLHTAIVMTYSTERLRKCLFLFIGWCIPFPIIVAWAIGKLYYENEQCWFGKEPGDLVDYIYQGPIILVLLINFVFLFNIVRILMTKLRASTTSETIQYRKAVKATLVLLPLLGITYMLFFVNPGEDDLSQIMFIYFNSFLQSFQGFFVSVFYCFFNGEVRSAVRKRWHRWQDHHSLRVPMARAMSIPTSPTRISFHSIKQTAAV
T4 sequence (P24387 whole entry): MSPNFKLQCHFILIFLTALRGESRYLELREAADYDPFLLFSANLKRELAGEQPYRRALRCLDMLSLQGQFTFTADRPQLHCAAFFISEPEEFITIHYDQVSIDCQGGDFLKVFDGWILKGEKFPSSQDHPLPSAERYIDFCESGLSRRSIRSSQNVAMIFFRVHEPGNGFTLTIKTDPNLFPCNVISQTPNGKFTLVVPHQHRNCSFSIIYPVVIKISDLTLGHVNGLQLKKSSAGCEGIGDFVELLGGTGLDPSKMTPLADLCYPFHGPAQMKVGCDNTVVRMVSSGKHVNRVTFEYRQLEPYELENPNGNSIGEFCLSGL

Cytochrome P450 2C19 = Cytochrome P450 2C19 (Homo sapiens, UniProt P33261); test: Cytochrome panel assay with activity outcomes. Panel member name: p450-cyp2c19 Compounds with AC50 equal or less than 10 uM are considered active; assay type: functional; details: read-out: AC50
Chain of Cytochrome P450 2C19 (P33261 whole entry): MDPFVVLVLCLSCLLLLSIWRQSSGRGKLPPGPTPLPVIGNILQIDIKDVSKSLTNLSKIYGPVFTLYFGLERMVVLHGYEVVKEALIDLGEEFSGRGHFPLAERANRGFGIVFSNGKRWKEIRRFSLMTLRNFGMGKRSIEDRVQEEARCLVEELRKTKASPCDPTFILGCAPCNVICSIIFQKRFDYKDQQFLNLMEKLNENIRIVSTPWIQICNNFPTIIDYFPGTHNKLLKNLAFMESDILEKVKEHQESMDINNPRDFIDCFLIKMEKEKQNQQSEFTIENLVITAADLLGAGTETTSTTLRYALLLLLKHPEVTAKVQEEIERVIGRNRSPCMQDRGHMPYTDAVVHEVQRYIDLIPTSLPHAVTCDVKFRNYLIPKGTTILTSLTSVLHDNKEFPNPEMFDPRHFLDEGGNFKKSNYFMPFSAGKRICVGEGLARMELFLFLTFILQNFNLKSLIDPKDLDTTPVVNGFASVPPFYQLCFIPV

Cytochrome P450 1A2 = target: T5, Cytochrome P450 1A2 (Homo sapiens, UniProt P05177);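 note: PubChem cytochrome P450 panel assay, CYP1A2 panel member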
T5 sequence (P05177 whole entry): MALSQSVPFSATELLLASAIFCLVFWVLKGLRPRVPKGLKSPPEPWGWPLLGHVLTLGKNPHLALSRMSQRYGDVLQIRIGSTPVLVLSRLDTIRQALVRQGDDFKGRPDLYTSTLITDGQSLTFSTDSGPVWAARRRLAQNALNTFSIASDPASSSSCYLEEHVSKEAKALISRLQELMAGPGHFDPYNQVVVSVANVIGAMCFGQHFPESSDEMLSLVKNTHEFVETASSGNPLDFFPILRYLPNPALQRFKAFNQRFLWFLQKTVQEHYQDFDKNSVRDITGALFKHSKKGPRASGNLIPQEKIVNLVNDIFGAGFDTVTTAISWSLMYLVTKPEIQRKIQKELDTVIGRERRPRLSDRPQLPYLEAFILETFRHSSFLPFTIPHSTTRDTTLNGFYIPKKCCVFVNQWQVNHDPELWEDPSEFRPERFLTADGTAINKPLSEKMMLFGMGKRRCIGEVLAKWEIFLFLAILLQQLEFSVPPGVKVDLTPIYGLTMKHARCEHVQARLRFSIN

INS1 = test: INS-1E survival protection against cytokine death – cell-based, luminescence, retest, dose response (AID 449756); assay type: functional; details: Rattus norvegicus;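 note: cell death triggered by IL-1 beta plus TNF-alpha plus IFN-gamma mixture; protective hits raise ATP signal compared with cytokine alone wells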

With `CC(C)c1n[nH]c2c1C(c1ccc(OC(=O)c3ccco3)cc1)C(C#N)=C(N)O2` (stereo not given) the EC50 (Protein RecA) was 3.02 µM (active) and the AC50 [1] was 6.85 µM (active).

For `Cc1cc(C)nc(-n2c(C)nc3cc(Cl)ccc3c2=O)c1`, the EC50 [2] was 35.9 µM (active).

In the case of `Cc1c(C)n(O)c2ccc3nonc3c12`, the EC50 (Protein RecA) is reported as 3.67 µM (active) and the AC50 [1] is reported as > 380 µM (inactive).

With `COC(=O)c1cccc(NC(S)=NCc2ccc(Cl)cc2)c1` the EC50 (Streptococcus) was 15.8 µM (active) and the EC50 [3] was 13 µM (active).

For `O=C(Nc1cccc2ncccc12)C(Cl)(Cl)Cl`, the EC50 [2] was > 195 µM (not active).

In the case of `CC1=NNC(=O)C1Cc1ccccc1C` (stereo not given), the EC50 (Protein RecA) is reported as 0.329 µM (active) and the AC50 [1] is reported as 0.538 µM (active).

With `Cc1nnc(SCC2=C(C(=O)O)N3C(=O)C(NC(=O)Cn4nc(C)c(Cl)c4C)C3SC2)s1` (stereo not given) the EC50 (Streptococcus) was 0.115 µM (active) and the EC50 [3] was < 0.06 µM (active).

In the case of `O=C(NCCCN1CCCC1=O)c1cccc(N2CCCC2=O)c1`, the EC50 [2] is reported as > 195 µM (not active).

For `O=C(C[n+]1ccccc1)NNc1ccccc1`, the AC50 [4] was 1.47 µM (active).

For `CCSc1nnc(-c2ccc(S(=O)(=O)NCc3cccs3)cc2)o1`, the EC50 [2] was > 195 µM (not active).

In the case of `Cc1ccccc1NS(=O)(=O)c1cc2c(cc1C)NC(=O)CO2`, the EC50 [5] is reported as > 53 µM (inactive).

For `Cc1cc(NC(=O)COc2coc(CN3CCN(c4ccccc4F)CC3)cc2=O)no1`, the EC50 [2] was > 195 µM (not active).

For `C=C(C)C(=O)NC1=NN(c2ccccc2)C(=O)C1`, the EC50 (Protein RecA) was 37 µM (active) and the AC50 [1] was 3.66 µM (active).

With `c1ccc(CCNCc2cccs2)cc1` the EC50 (Protein RecA) was > 380 µM (inactive) and the AC50 [1] was > 380 µM (inactive).

With `Clc1ccc(C2=C3CCCCn4c(-c5ccccc5)c[n+](c43)C2)cc1` the AC50 (Cytochrome P450 2C19) was 1.12 µM (inconclusive), the AC50 (Cytochrome P450 1A2) was 12.6 µM (inconclusive) and the EC50 (Protein RecA) was 50 µM (active). The AC50 [1] was > 380 µM (inactive).

In the case of `COc1ccc(OC)c(-c2cc(-c3cccnc3)nc(N)c2C#N)c1`, the AC50 [4] is reported as 0.766 µM (active).

With `N#CCc1nn(-c2ccccc2)c2ncnc(N)c12` the EC50 [2] was 30.8 µM (active).

In the case of `O=S1(=O)N[C@H](c2ccccc2)C[C@H](c2ccc(C(F)(F)F)cc2)O1`, the EC50 [2] is reported as > 195 µM (not active).

With `COc1ccc(/C=C/C(=O)c2ccncc2)c2ccccc12` the AC50 [4] was 11.8 µM (active), the AC50 (INS1) was 26.7 µM (active) and the EC50 (Protein RecA) was 8.84 µM (active). The AC50 [1] was > 120 µM (inactive).

For `CC1Cc2cc(C(=O)C3=C(O)C(=O)N(CC4CCCO4)C3c3ccco3)ccc2O1` (stereo not given), the EC50 [2] was 69.9 µM (active).

In the case of `CCC1Sc2ccc(S(=O)(=O)Nc3ccc(OC)cc3)cc2NC1=O` (stereo not given), the EC50 [2] is reported as > 195 µM (not active).

In the case of `O=C(Nc1cccnc1)c1coc(=O)c2ccccc12`, the EC50 [2] is reported as > 195 µM (not active).

In the case of `CCc1c(C)sc(NC(=O)/C=C/c2ccc3c(c2)OCO3)c1C(=O)OC`, the AC50 [4] is reported as 0.768 µM (active).

In the case of `CCOC(=O)c1ccc(NC(=O)N2CCN(S(C)(=O)=O)CC2)cc1`, the EC50 [2] is reported as > 195 µM (not active).

With `Cc1ccc(C(c2c(C)n[nH]c2O)c2c(C)n[nH]c2O)cc1` the EC50 (Protein RecA) was 0.248 µM (active) and the AC50 [1] was 0.36 µM (active).

For `COc1ccc(Cl)cc1C(=O)NCC(=O)OCc1ccccc1`, the EC50 [2] was > 195 µM (not active).

For `CN(C)c1ccc(/C=N\Nc2nc(O)cc(-c3ccccc3)n2)cc1`, the EC50 [2] was > 195 µM (not active).

For `Cc1ccc(/N=C2\C(Cl)=C(O)OC2OC(=O)c2ccco2)cc1C` (stereo not given), the EC50 (Protein RecA) was 8.65 µM (active) and the AC50 [1] was 11.5 µM (active).

With `Cc1ccc(Sc2oc(/C=N/n3cnnc3)cc2Br)cc1` the EC50 (Protein RecA) was 9.82 µM (active) and the AC50 [1] was 4.42 µM (active).
